{
  "source": "paper PMC3085948",
  "about": "(Journal of medicinal chemistry, 2011)",
  "key": {"human FAAH": {"system": "human FAAH", "assay": "FAAH inhibition, human FAAH from transfected COS-7 cells", "type": "biochemical", "settings": "active (S)-enantiomers; hFAAH vs rFAAH"}, "[1]": {"system": "cannabinoid (CB1 or CB2) or vanilloid receptors", "settings": "background statement; cited from earlier work"}, "[2]": {"system": "common P450 metabolism enzymes", "settings": "background statement; cited from earlier work"}, "[3]": {"system": "human ether-a-go-go related gene (hERG)", "settings": "background statement; cited from earlier work"}, "FAAH knockout mice": {"system": "FAAH knockout mice", "settings": "cited from earlier work"}, "[4]": {"settings": "in vivo; cited from earlier work"}, "[5]": {"assay": "Rat or human liver microsome stability", "settings": "rat, human, microsomes"}, "rat FAAH": {"biological_target": "T1, rat FAAH (Rattus norvegicus, UniProt P97612)", "T1 sequence (P97612 30-579 limits assumed)": "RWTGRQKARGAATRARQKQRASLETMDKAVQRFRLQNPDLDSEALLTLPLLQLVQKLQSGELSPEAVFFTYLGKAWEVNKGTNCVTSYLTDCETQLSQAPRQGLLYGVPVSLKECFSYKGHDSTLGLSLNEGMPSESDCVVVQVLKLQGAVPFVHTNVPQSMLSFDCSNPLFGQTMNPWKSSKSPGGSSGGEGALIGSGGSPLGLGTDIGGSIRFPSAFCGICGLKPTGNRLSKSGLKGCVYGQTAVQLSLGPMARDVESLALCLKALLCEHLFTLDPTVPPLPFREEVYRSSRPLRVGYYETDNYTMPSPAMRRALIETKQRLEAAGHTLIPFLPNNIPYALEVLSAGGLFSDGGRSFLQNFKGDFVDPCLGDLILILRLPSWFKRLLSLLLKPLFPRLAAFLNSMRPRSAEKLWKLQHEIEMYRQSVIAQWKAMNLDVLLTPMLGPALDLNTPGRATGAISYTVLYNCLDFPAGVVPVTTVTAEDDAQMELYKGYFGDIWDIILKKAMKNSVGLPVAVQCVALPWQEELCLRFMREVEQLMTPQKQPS", "type": "biochemical"}, "acute thermal pain": {"system": "acute thermal pain", "type": "in vivo, mice", "settings": "i.v. administration"}, "[6]": {"system": "endogenous lipid amide levels (anandamide, PEA, OEA, 2-AG, arachidonic acid)", "settings": "for site of effect on lipid levels (brain vs liver) / effect on endogenous levels of 2-AG / effect on endogenous levels of arachidonic acid / effect on endogenous levels of key lipid amides (anandamide, PEA): 30 mg/kg i.p., single mouse; for brain lipid amide levels, oral versus intraperitoneal dosing: p.o. 50 mg/kg vs i.p. 30 mg/kg, 3 mice per group"}, "[7]": {"system": "chronic constriction injury (CCI) neuropathic pain", "assay": "CCI mechanical allodynia", "type": "in vivo, mice", "settings": "50 mg/kg p.o."}, "[8]": {"system": "chronic constriction injury (CCI) neuropathic pain", "assay": "CCI acetone-induced cold allodynia", "type": "in vivo, mice", "settings": "50 mg/kg p.o."}, "[9]": {"type": "in vivo", "settings": "50 mg/kg oral, data not shown"}},
  "data": [
    {"smiles": "O=C(CCCCCCc1ccccc1)c1ncc(-c2ccccn2)o1", "note": "[Compound 2]", "values": [
      {"measurement": "activity against human versus rat FAAH", "setting": "human FAAH", "result": "no significant distinction"},
      {"measurement": "binding to cannabinoid (CB1 or CB2) or vanilloid receptors", "setting": "[1]", "result": "does not bind"},
      {"measurement": "inhibition of common P450 metabolism enzymes", "setting": "[2]", "result": "does not significantly inhibit"},
      {"measurement": "inhibition of hERG", "setting": "[3]", "result": "does not significantly inhibit"},
      {"measurement": "antinociception in FAAH knockout mice", "setting": "FAAH knockout mice", "result": "does not produce antinociception"},
      {"measurement": "time to establish ketone/alcohol steady state equilibrium", "setting": "[4]", "result": "≤ 15", "unit": "min"},
      {"measurement": "half-life", "setting": "[5]", "result": "2 to 4", "unit": "min"}
    ]},
    {"smiles": "O=C(c1ncc(-c2ccccn2)o1)C1CCc2cc(OCc3ccccc3)ccc2C1", "note": "(stereo not shown) [Compound 18]", "values": [
      {"measurement": "half-life", "setting": "[5]", "result": "12 to 15", "unit": "min"}
    ]},
    {"smiles": "O=C(O)c1cccc(-c2cnc(C(=O)C3CCc4cc(Oc5ccccc5)ccc4C3)o2)n1", "note": "(stereo not shown) [Compound 14, 6-(2-(6-Phenoxy-1,2,3,4-tetrahydronaphthalene-2-carbonyl)oxazol-5-yl)picolinic Acid]", "values": [
      {"measurement": "mode of inhibition (Lineweaver–Burk analysis)", "setting": "rat FAAH", "result": "reversible, competitive inhibitors"},
      {"measurement": "activity against human versus rat FAAH", "setting": "human FAAH", "result": 4, "unit": "fold"},
      {"measurement": "duration of effect", "setting": "acute thermal pain", "result": 150, "unit": "min"},
      {"measurement": "time of maximal effect", "setting": "acute thermal pain", "result": "30 to 60", "unit": "min"},
      {"measurement": "maximal antinociceptive effect (efficacy)", "setting": "acute thermal pain; tail flick 52 °C", "result": "same maximal effect (efficacy) observed with morphine"},
      {"measurement": "site of effect on lipid levels (brain vs liver)", "setting": "[6]; 1 h", "result": "principally seen peripherally (liver)"},
      {"measurement": "brain lipid amide levels, oral versus intraperitoneal dosing", "setting": "[6]", "result": "matched and even improved on the results observed with i.p. administration"}
    ]},
    {"smiles": "O=C(c1ncc(-c2ccccn2)o1)C1Cc2ccc(Oc3ccccc3)cc2C1", "note": "(stereo not shown) [Compound 27]", "values": [
      {"measurement": "effect on endogenous levels of 2-AG", "setting": "[6]; 1 h", "result": "without impacting"},
      {"measurement": "effect on endogenous levels of arachidonic acid", "setting": "[6]; 1 h", "result": "minimal impact"},
      {"measurement": "effect on endogenous levels of key lipid amides (anandamide, PEA)", "setting": "[6]; 1 h", "result": "increased"}
    ]},
    {"smiles": "CN1CC[C@]23c4c5ccc(O)c4O[C@H]2[C@@H](O)C=C[C@H]3[C@H]1C5", "note": "[morphine, reference compound]", "values": [
      {"measurement": "duration of effect", "setting": "acute thermal pain", "result": 150, "unit": "min"}
    ]},
    {"smiles": "O=C(c1ncc(-c2ccccn2)o1)C1CCc2cc(Oc3ccccc3)ccc2C1", "note": "(stereo not shown) [Compound 12, (6-Phenoxy-1,2,3,4-tetrahydronaphthalen-2-yl)(5-(pyridin-2-yl)oxazol-2-yl)methanone]", "values": [
      {"measurement": "mode of inhibition (Lineweaver–Burk analysis)", "setting": "rat FAAH", "result": "reversible, competitive inhibitors"},
      {"measurement": "activity against human versus rat FAAH", "setting": "human FAAH", "result": "no significant distinction"},
      {"measurement": "duration of effect on mechanical allodynia", "setting": "[7]", "result": "> 6", "unit": "h"},
      {"measurement": "mechanical allodynia, control paws", "setting": "[7]", "result": "no effect"},
      {"measurement": "mechanical allodynia, paws ipsilateral to CCI surgery", "setting": "[7]", "result": "significantly attenuated"},
      {"measurement": "cold allodynia, control paws", "setting": "[8]", "result": "no effect"},
      {"measurement": "cold allodynia, paws ipsilateral to CCI surgery", "setting": "[8]", "result": "significantly attenuated"},
      {"measurement": "duration of effect on cold allodynia", "setting": "[8]", "result": "> 9", "unit": "h"},
      {"measurement": "cannabimimetic side effects", "setting": "[9]", "result": "did not produce catalepsy, hypothermia, or hypomotility"},
      {"measurement": "effect on endogenous levels of 2-AG", "setting": "[6]; 1 h", "result": "without impacting"},
      {"measurement": "effect on endogenous levels of arachidonic acid", "setting": "[6]; 1 h", "result": "minimal impact"},
      {"measurement": "effect on endogenous levels of key lipid amides (anandamide, PEA)", "setting": "[6]; 1 h", "result": "increased"},
      {"measurement": "site of effect on lipid levels (brain vs liver)", "setting": "[6]; 1 h", "result": "observed both in the brain (CNS) and liver (peripheral)"},
      {"measurement": "time of peak brain anandamide levels", "setting": "[6]; 50 mg/kg p.o.", "result": "1.5 to 3", "unit": "h"},
      {"measurement": "duration of elevation of brain N-acylethanolamines", "setting": "[6]; 50 mg/kg p.o., time course up to 9 h", "result": "≥ 9", "unit": "h"},
      {"measurement": "brain lipid amide levels, oral versus intraperitoneal dosing", "setting": "[6]", "result": "matched and even improved on the results observed with i.p. administration"},
      {"measurement": "increase in brain levels of PEA and OEA", "setting": "[6]; p.o. 10, 25 and 50 mg/kg, 1 h", "result": "5.5–7.8 fold"},
      {"measurement": "increase in brain anandamide levels", "setting": "[6]; p.o. 25–50 mg/kg, 1 h", "result": "12–13 fold"}
    ]}
  ]
}
